Where a SMILES comes first, the peptide text is derived from it. Bridges are numbered along the chain shown (N, C = ends). [ ]: non-standard residue; d: D form. The star is where a group is joined. hPhe(3-Cl-4-CF3) = N[C@@H](CCc1ccc(C(F)(F)F)c(Cl)c1)C(=O)O; NPrPhe(4-CF3) = CCCN[C@@H](Cc1ccc(C(F)(F)F)cc1)C(=O)O; NMeGly(cPent) = CN[C@H](C(=O)O)C1CCCC1; Pro(4,4-F2) = O=C(O)[C@@H]1CC(F)(F)CN1; Hyp = O=C(O)[C@@H]1C[C@@H](O)CN1; NMeL = CN[C@@H](CC(C)C)C(=O)O; Morpholide = C1CN(*)CCO1; Ac5c = NC1(C(=O)O)CCCC1; Aze = O=C(O)[C@@H]1CCN1; Ac4c = NC1(C(=O)O)CCC1; NEtG = CCNCC(=O)O; Sar = CNCC(=O)O
Experiments:
[1] = molecular target: GDP-bound KRAS wild-type protein (Homo sapiens, UniProt P01116); assay: Binding to KRAS by surface plasmon resonance (SPR), Single Cycle Kinetics; settings: SPR Single Cycle Kinetics, GDP-bound KRAS wild-type protein, 1:1 binding model; read-out: KRAS KD
GDP-bound KRAS wild-type protein, sequence (P01116 whole entry): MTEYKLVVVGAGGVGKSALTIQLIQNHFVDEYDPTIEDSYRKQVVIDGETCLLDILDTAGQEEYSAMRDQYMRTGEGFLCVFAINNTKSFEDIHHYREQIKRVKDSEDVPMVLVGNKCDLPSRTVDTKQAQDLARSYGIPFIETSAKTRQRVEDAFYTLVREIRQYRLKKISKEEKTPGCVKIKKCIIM

[2] = molecular target: GDP-bound HRAS wild-type protein (Homo sapiens, UniProt P01112); assay: Binding to HRAS by surface plasmon resonance (SPR), Single Cycle Kinetics; settings: SPR, GDP-bound HRAS wild-type protein vs GDP-bound KRAS wild-type protein
GDP-bound HRAS wild-type protein, sequence (P01112 whole entry): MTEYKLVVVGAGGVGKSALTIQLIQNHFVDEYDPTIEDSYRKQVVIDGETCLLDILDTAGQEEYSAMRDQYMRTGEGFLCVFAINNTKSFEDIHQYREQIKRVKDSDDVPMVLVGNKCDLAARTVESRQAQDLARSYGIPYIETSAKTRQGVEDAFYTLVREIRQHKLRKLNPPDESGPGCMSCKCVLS

[3] = molecular target: GDP-bound NRAS wild-type protein (Homo sapiens, UniProt P01111); assay: Binding to NRAS by surface plasmon resonance (SPR), Single Cycle Kinetics; settings: SPR, GDP-bound NRAS wild-type protein vs GDP-bound KRAS wild-type protein
GDP-bound NRAS wild-type protein, sequence (P01111 whole entry): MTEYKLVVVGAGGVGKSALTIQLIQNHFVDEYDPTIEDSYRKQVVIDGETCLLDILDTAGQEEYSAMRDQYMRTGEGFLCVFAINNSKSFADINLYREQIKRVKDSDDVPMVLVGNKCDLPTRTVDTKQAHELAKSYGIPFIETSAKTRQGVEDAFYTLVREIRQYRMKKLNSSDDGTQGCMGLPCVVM

Compound	Kd [1]	HRAS/KRAS (ratio of KD value for HRAS to KD value for KRAS) [2]	NRAS/KRAS (ratio of KD value for NRAS to KD value for KRAS) [3]
CCCN1C(=O)CN(C)C(=O)CNC(=O)[C@H]([C@@H](C)CC)NC(=O)[C@H](CC(C)C)N(C)C(=O)C[C@@H](C(=O)N2CCOCC2)NC(=O)[C@H](C2CCCC2)N(C)C(=O)C2(CCCC2)NC(=O)[C@@H]2CC(F)(F)CN2C(=O)[C@H](CCc2ccc(C(F)(F)F)c(Cl)c2)NC(=O)CN(C)C(=O)[C@@H]1Cc1ccc(C(F)(F)F)cc1 [PP0327] ([NMeL]IG[Sar][NPrPhe(4-CF3)][Sar][hPhe(3-Cl-4-CF3)][Pro(4,4-F2)][Ac5c][NMeGly(cPent)]D-Morpholide; lactam N-11)	1.9 nM	B (a compound having 3 or more and less than 10 is denoted as B)	B (a compound having 3 or more and less than 10 is denoted as B)
CCCN1C(=O)CN(C)C(=O)CNC(=O)[C@H]([C@@H](C)CC)NC(=O)[C@H](CC(C)C)N(C)C(=O)C[C@@H](C(=O)N2CCOCC2)NC(=O)[C@H](C2CCCC2)N(C)C(=O)C2(CCC2)NC(=O)[C@@H]2CC(F)(F)CN2C(=O)[C@H](CCc2ccc(C(F)(F)F)c(Cl)c2)NC(=O)CN(C)C(=O)[C@@H]1Cc1ccc(C(F)(F)F)cc1 [PP0328] ([NMeL]IG[Sar][NPrPhe(4-CF3)][Sar][hPhe(3-Cl-4-CF3)][Pro(4,4-F2)][Ac4c][NMeGly(cPent)]D-Morpholide; lactam N-11)	1.6 nM	B (a compound having 3 or more and less than 10 is denoted as B)	B (a compound having 3 or more and less than 10 is denoted as B)
CCCN1C(=O)CN(C)C(=O)CNC(=O)[C@H]([C@@H](C)CC)NC(=O)[C@H](CC(C)C)N(C)C(=O)C[C@@H](C(=O)N2CCOCC2)NC(=O)[C@H](C2CCCC2)N(C)C(=O)C2(CCCC2)NC(=O)[C@@H]2C[C@@H](OCC)CN2C(=O)[C@H](CCc2ccc(C(F)(F)F)c(Cl)c2)NC(=O)CN(C)C(=O)[C@@H]1Cc1ccc(C(F)(F)F)cc1 [PP0329] ([NMeL]IG[Sar][NPrPhe(4-CF3)][Sar][hPhe(3-Cl-4-CF3)][Hyp](Et)[Ac5c][NMeGly(cPent)]D-Morpholide; lactam N-11)	0.74 nM	C (A compound having a KD ratio of 0.1 or more and less than 3 is denoted as C)	B (a compound having 3 or more and less than 10 is denoted as B)
CCCN1C(=O)CN(C)C(=O)CNC(=O)[C@H]([C@@H](C)CC)NC(=O)[C@H](CC(C)C)N(C)C(=O)C[C@@H](C(=O)N2CCOCC2)NC(=O)[C@H](C2CCCC2)N(C)C(=O)C2(CCC2)NC(=O)[C@@H]2C[C@@H](OCC)CN2C(=O)[C@H](CCc2ccc(C(F)(F)F)c(Cl)c2)NC(=O)CN(C)C(=O)[C@@H]1Cc1ccc(C(F)(F)F)cc1 [PP0330] ([NMeL]IG[Sar][NPrPhe(4-CF3)][Sar][hPhe(3-Cl-4-CF3)][Hyp](Et)[Ac4c][NMeGly(cPent)]D-Morpholide; lactam N-11)	0.95 nM	C (A compound having a KD ratio of 0.1 or more and less than 3 is denoted as C)	B (a compound having 3 or more and less than 10 is denoted as B)
CCCN1C(=O)CN(C)C(=O)CN(CC)C(=O)[C@H]([C@@H](C)CC)NC(=O)[C@H](CC(C)C)N(C)C(=O)C[C@@H](C(=O)N2CCOCC2)NC(=O)[C@H](C2CCCC2)N(C)C(=O)C2(CCCC2)NC(=O)[C@@H]2CCCN2C(=O)[C@H](CCc2ccc(C(F)(F)F)c(Cl)c2)NC(=O)CN(C)C(=O)[C@@H]1Cc1ccc(C(F)(F)F)cc1 [PP0331] ([NMeL]I[NEtG][Sar][NPrPhe(4-CF3)][Sar][hPhe(3-Cl-4-CF3)]P[Ac5c][NMeGly(cPent)]D-Morpholide; lactam N-11)	2.8 nM	B (a compound having 3 or more and less than 10 is denoted as B)	B (a compound having 3 or more and less than 10 is denoted as B)
CCCN1C(=O)CN(C)C(=O)CN(CC)C(=O)[C@H]([C@@H](C)CC)NC(=O)[C@H](CC(C)C)N(C)C(=O)C[C@@H](C(=O)N2CCOCC2)NC(=O)[C@H](C2CCCC2)N(C)C(=O)C2(CCC2)NC(=O)[C@@H]2CCCN2C(=O)[C@H](CCc2ccc(C(F)(F)F)c(Cl)c2)NC(=O)CN(C)C(=O)[C@@H]1Cc1ccc(C(F)(F)F)cc1 [PP0332] ([NMeL]I[NEtG][Sar][NPrPhe(4-CF3)][Sar][hPhe(3-Cl-4-CF3)]P[Ac4c][NMeGly(cPent)]D-Morpholide; lactam N-11)	3.2 nM	B (a compound having 3 or more and less than 10 is denoted as B)	B (a compound having 3 or more and less than 10 is denoted as B)
CCCN1C(=O)CN(C)C(=O)CN(CC)C(=O)[C@H]([C@@H](C)CC)NC(=O)[C@H](CC(C)C)N(C)C(=O)C[C@@H](C(=O)N2CCOCC2)NC(=O)[C@H](C2CCCC2)N(C)C(=O)C2(CCCC2)NC(=O)[C@@H]2CC(F)(F)CN2C(=O)[C@H](CCc2ccc(C(F)(F)F)c(Cl)c2)NC(=O)CN(C)C(=O)[C@@H]1Cc1ccc(C(F)(F)F)cc1 [PP0333] ([NMeL]I[NEtG][Sar][NPrPhe(4-CF3)][Sar][hPhe(3-Cl-4-CF3)][Pro(4,4-F2)][Ac5c][NMeGly(cPent)]D-Morpholide; lactam N-11)	2.4 nM	C (A compound having a KD ratio of 0.1 or more and less than 3 is denoted as C)	B (a compound having 3 or more and less than 10 is denoted as B)
CCCN1C(=O)CN(C)C(=O)CN(CC)C(=O)[C@H]([C@@H](C)CC)NC(=O)[C@H](CC(C)C)N(C)C(=O)C[C@@H](C(=O)N2CCOCC2)NC(=O)[C@H](C2CCCC2)N(C)C(=O)C2(CCC2)NC(=O)[C@@H]2CC(F)(F)CN2C(=O)[C@H](CCc2ccc(C(F)(F)F)c(Cl)c2)NC(=O)CN(C)C(=O)[C@@H]1Cc1ccc(C(F)(F)F)cc1 [PP0334] ([NMeL]I[NEtG][Sar][NPrPhe(4-CF3)][Sar][hPhe(3-Cl-4-CF3)][Pro(4,4-F2)][Ac4c][NMeGly(cPent)]D-Morpholide; lactam N-11)	4.7 nM	C (A compound having a KD ratio of 0.1 or more and less than 3 is denoted as C)	B (a compound having 3 or more and less than 10 is denoted as B)
CCCN1C(=O)CN(C)C(=O)CN(CC)C(=O)[C@H]([C@@H](C)CC)NC(=O)[C@H](CC(C)C)N(C)C(=O)C[C@@H](C(=O)N2CCOCC2)NC(=O)[C@H](C2CCCC2)N(C)C(=O)C2(CCCC2)NC(=O)[C@@H]2C[C@@H](OCC)CN2C(=O)[C@H](CCc2ccc(C(F)(F)F)c(Cl)c2)NC(=O)CN(C)C(=O)[C@@H]1Cc1ccc(C(F)(F)F)cc1 [PP0335] ([NMeL]I[NEtG][Sar][NPrPhe(4-CF3)][Sar][hPhe(3-Cl-4-CF3)][Hyp](Et)[Ac5c][NMeGly(cPent)]D-Morpholide; lactam N-11)	1.3 nM	C (A compound having a KD ratio of 0.1 or more and less than 3 is denoted as C)	B (a compound having 3 or more and less than 10 is denoted as B)
CCCN1C(=O)CN(C)C(=O)CN(CC)C(=O)[C@H]([C@@H](C)CC)NC(=O)[C@H](CC(C)C)N(C)C(=O)C[C@@H](C(=O)N2CCOCC2)NC(=O)[C@H](C2CCCC2)N(C)C(=O)C2(CCC2)NC(=O)[C@@H]2C[C@@H](OCC)CN2C(=O)[C@H](CCc2ccc(C(F)(F)F)c(Cl)c2)NC(=O)CN(C)C(=O)[C@@H]1Cc1ccc(C(F)(F)F)cc1 [PP0336] ([NMeL]I[NEtG][Sar][NPrPhe(4-CF3)][Sar][hPhe(3-Cl-4-CF3)][Hyp](Et)[Ac4c][NMeGly(cPent)]D-Morpholide; lactam N-11)	1.6 nM	B (a compound having 3 or more and less than 10 is denoted as B)	B (a compound having 3 or more and less than 10 is denoted as B)
CCCN1C(=O)CN(C)C(=O)[C@@H]2CCN2C(=O)[C@H]([C@@H](C)CC)NC(=O)[C@H](CC(C)C)N(C)C(=O)C[C@@H](C(=O)N2CCOCC2)NC(=O)[C@H](C2CCCC2)N(C)C(=O)C2(CCCC2)NC(=O)[C@@H]2CCCN2C(=O)[C@H](CCc2ccc(C(F)(F)F)c(Cl)c2)NC(=O)CN(C)C(=O)[C@@H]1Cc1ccc(C(F)(F)F)cc1 [PP0337] ([NMeL]I[Aze][Sar][NPrPhe(4-CF3)][Sar][hPhe(3-Cl-4-CF3)]P[Ac5c][NMeGly(cPent)]D-Morpholide; lactam N-11)	2.5 nM	B (a compound having 3 or more and less than 10 is denoted as B)	B (a compound having 3 or more and less than 10 is denoted as B)
CCCN1C(=O)CN(C)C(=O)[C@@H]2CCN2C(=O)[C@H]([C@@H](C)CC)NC(=O)[C@H](CC(C)C)N(C)C(=O)C[C@@H](C(=O)N2CCOCC2)NC(=O)[C@H](C2CCCC2)N(C)C(=O)C2(CCCC2)NC(=O)[C@@H]2CC(F)(F)CN2C(=O)[C@H](CCc2ccc(C(F)(F)F)c(Cl)c2)NC(=O)CN(C)C(=O)[C@@H]1Cc1ccc(C(F)(F)F)cc1 [PP0339] ([NMeL]I[Aze][Sar][NPrPhe(4-CF3)][Sar][hPhe(3-Cl-4-CF3)][Pro(4,4-F2)][Ac5c][NMeGly(cPent)]D-Morpholide; lactam N-11)	5 nM	B (a compound having 3 or more and less than 10 is denoted as B)	B (a compound having 3 or more and less than 10 is denoted as B)

Reference: patent publication US20240158446A1, “CYCLIC COMPOUND HAVING SELECTIVE INHIBITORY ACTION ON KRAS OVER HRAS AND NRAS” (CHUGAI SEIYAKU KABUSHIKI KAISHA, priority 2021, published 2024)
